Several values for one entry are separate records, joined by “and”; a condition that tells them apart may be missing. Identical values can stand only once.
Assays:
Format in all cases: cell-based, human
[1] = tested on: PBMC from allergic donors; test: IL-5 ELISPOT with extract-stimulated short-term lines; settings: positive donor/peptide response
Experimental: (§1) Spots were counted by computer-assisted image analysis (Zeiss, KS-ELISPOT reader, Munich, Germany).
(§2) Each assay was performed in triplicate. The level of statistical significance was determined with a Student's t-test using the mean of triplicate values of the response against relevant pools or individual peptides versus the response against the DMSO control.

[2] = tested on: PBMC from allergic donors; test: IFN-γ ELISPOT with extract-stimulated short-term lines; settings: positive donor/peptide response
Experimental: as §1, §2

[3] = tested on: PBMC from allergic donors; test: Dual ELISPOT, total IL-5 and IFN-γ response (SFC); settings: sum of IFNg and IL-5
Experimental: as §1, §2

| Structure (SMILES) | Response (SFC/10^6) IL-5 ([1]; one donor per table line) | Response (SFC/10^6) IFNg ([2]; one donor per table line) | Response (SFC/10^6) Total ([3]; one donor per table line) | Response (SFC/10^6) IL-5 ([1]; each table line is one donor) | Response (SFC/10^6) Total ([3]; each table line is one donor) | Response (SFC/10^6) IFNg ([2]; each table line is one donor) |
| --- | --- | --- | --- | --- | --- | --- |
| CC[C@H](C)[C@H](NC(=O)CNC(=O)[C@@H](N)CCCNC(=N)N)C(=O)N[C@@H](CCC(=O)O)C(=O)N[C@@H](Cc1ccc(O)cc1)C(=O)N[C@H](C(=O)N[C@@H](CCC(N)=O)C(=O)N[C@@H](Cc1c[nH]cn1)C(=O)N[C@@H](CC(N)=O)C(=O)NCC(=O)N[C@H](C(=O)N[C@H](C(=O)N[C@@H](CCC(N)=O)C(=O)N[C@@H](CCC(=O)O)C(=O)N[C@@H](CO)C(=O)O)C(C)C)C(C)C)[C@@H](C)CC [3324.0831] | 567 SFC/10^6 and 103 SFC/10^6 | 220 SFC/10^6 | 567 SFC/10^6 and 323 SFC/10^6 |  |  |  |
| CC(C)[C@H](NC(=O)CNC(=O)[C@H](CO)NC(=O)[C@H](Cc1ccccc1)NC(=O)[C@H](C)NC(=O)[C@H](Cc1c[nH]c2ccccc12)NC(=O)[C@H](CS)NC(=O)[C@@H](N)CO)C(=O)N[C@@H](C)C(=O)N[C@@H](C)C(=O)N[C@H](C(=O)N[C@@H](CCC(=O)O)C(=O)N[C@@H](CO)C(=O)N[C@@H](C)C(=O)N[C@@H](Cc1ccc(O)cc1)C(=O)O)[C@@H](C)O [3324.0832] | 460 SFC/10^6 and 773 SFC/10^6 | 843 SFC/10^6 and 233 SFC/10^6 | 1303 SFC/10^6 and 1007 SFC/10^6 |  |  |  |
| CC[C@H](C)[C@H](NC(=O)[C@@H](NC(=O)[C@@H](NC(=O)[C@H](C)NC(=O)[C@@H](NC(=O)[C@H](C)NC(=O)[C@H](CO)NC(=O)[C@H](Cc1c[nH]cn1)NC(=O)[C@@H](NC(=O)[C@H](CCC(N)=O)NC(=O)[C@H](C)NC(=O)[C@H](CC(C)C)NC(=O)[C@H](C)NC(=O)[C@H](CCC(=O)O)NC(=O)[C@@H](N)CCCNC(=N)N)[C@@H](C)O)[C@@H](C)CC)C(C)C)[C@@H](C)CC)C(=O)O [3324.0840] | 477 SFC/10^6 and 900 SFC/10^6 | 1407 SFC/10^6 | 1883 SFC/10^6 and 900 SFC/10^6 |  |  |  |
| CC[C@H](C)[C@H](NC(=O)[C@H](CCSC)NC(=O)[C@H](CCCNC(=N)N)NC(=O)[C@H](Cc1ccccc1)NC(=O)[C@H](CCCCN)NC(=O)[C@@H](NC(=O)[C@H](CCSC)NC(=O)[C@H](CC(N)=O)NC(=O)[C@H](Cc1ccc(O)cc1)NC(=O)[C@@H](NC(=O)[C@@H](N)CCC(=O)O)[C@@H](C)CC)C(C)C)C(=O)N[C@@H](C)C(=O)NCC(=O)N[C@@H](CCC(N)=O)C(=O)N[C@@H](CCC(=O)O)C(=O)O [3324.0978] | 167 SFC/10^6 and 1100 SFC/10^6 | 667 SFC/10^6 | 167 SFC/10^6 and 1100 SFC/10^6 and 667 SFC/10^6 |  |  |  |
| CC[C@H](C)[C@H](NC(=O)[C@H](CCC(=O)O)NC(=O)[C@H](CCCNC(=N)N)NC(=O)[C@H](Cc1c[nH]c2ccccc12)NC(=O)[C@H](CCCNC(=N)N)NC(=O)[C@H](Cc1c[nH]cn1)NC(=O)[C@@H](N)CCC(=O)O)C(=O)N[C@@H](Cc1ccc(O)cc1)C(=O)N[C@@H](CC(N)=O)C(=O)N[C@@H](CCSC)C(=O)N[C@H](C(=O)N[C@@H](CCCCN)C(=O)N[C@@H](Cc1ccccc1)C(=O)N[C@@H](CCCNC(=N)N)C(=O)N[C@@H](CCSC)C(=O)O)C(C)C [3324.0986] | 300 SFC/10^6 and 80 SFC/10^6 and 402 SFC/10^6 | 1007 SFC/10^6 | 300 SFC/10^6 and 1007 SFC/10^6 and 80 SFC/10^6 and 402 SFC/10^6 |  |  |  |
| CC[C@H](C)[C@H](NC(=O)[C@@H]1CCCN1C(=O)[C@H](CC(N)=O)NC(=O)[C@H](C)NC(=O)[C@H](Cc1ccc(O)cc1)NC(=O)[C@@H](N)CCCNC(=N)N)C(=O)N[C@@H](C)C(=O)N[C@@H](Cc1ccccc1)C(=O)N[C@@H](Cc1ccccc1)C(=O)N[C@@H](CCCNC(=N)N)C(=O)N[C@@H](CCCCN)C(=O)N[C@@H](CCC(=O)O)C(=O)N1CCC[C@H]1C(=O)N[C@@H](CC(C)C)C(=O)N[C@@H](CCCCN)C(=O)O [3324.1138] | 1697 SFC/10^6 | 440 SFC/10^6 | 2137 SFC/10^6 |  |  |  |
| CC[C@H](C)[C@H](NC(=O)[C@H](CCC(=O)O)NC(=O)[C@H](Cc1c[nH]c2ccccc12)NC(=O)[C@@H](NC(=O)CNC(=O)[C@@H](N)CC(=O)O)C(C)C)C(=O)N[C@@H](CCCCN)C(=O)N[C@@H](CO)C(=O)N[C@@H](CC(=O)O)C(=O)N[C@@H](CCCCN)C(=O)N1CCC[C@H]1C(=O)N[C@@H](CC(C)C)C(=O)N[C@@H](CCCCN)C(=O)NCC(=O)N1CCC[C@H]1C(=O)O [3324.1139] | 83 SFC/10^6 | 103 SFC/10^6 and 83 SFC/10^6 | 103 SFC/10^6 and 167 SFC/10^6 | 577 SFC/10^6 and 287 SFC/10^6 | 577 SFC/10^6 and 287 SFC/10^6 |  |
| CC[C@H](C)[C@H](NC(=O)[C@@H](NC(=O)[C@H](CCC(=O)O)NC(=O)[C@H](CC(=O)O)NC(=O)[C@H](Cc1ccccc1)NC(=O)[C@@H](NC(=O)[C@@H](N)CC(N)=O)C(C)C)C(C)C)C(=O)N1CCC[C@H]1C(=O)N[C@H](C(=O)N[C@@H](C)C(=O)N[C@@H](Cc1ccccc1)C(=O)N[C@H](C(=O)N[C@H](C(=O)NCC(=O)N[C@@H](CCCCN)C(=O)O)C(C)C)[C@@H](C)O)[C@@H](C)O [3324.1141] |  |  |  | 2258 SFC/10^6 and 820 SFC/10^6 | 2258 SFC/10^6 and 1083 SFC/10^6 | 263 SFC/10^6 |

Reference: patent US10918713B2, “Epitopes from allergen proteins and methods and uses for immune response modulation” (LA JOLLA INSTITUTE FOR ALLERGY AND IMMUNOLOGY, priority 2012, dated 2021)
